{"source": "EPA's ToxValDB 9.5 (doi:10.2903/j.efsa.2007.108r)", "key": {"[1]": {"test_system": "Tagia sp.", "details": "acute; duration: 14 days; mortality"}, "[2]": {"test_system": "Rattus norvegicus"}, "[3]": {"test_system": "Anas platyrhynchos", "details": "short-term; oral; feed; mortality"}, "[4]": {"test_system": "Apis mellifera", "details": "acute; duration: 48 hours; oral; unspecified; mortality"}, "[5]": {"test_system": "Oncorhynchus mykiss"}, "[6]": {"test_system": "Colinus virginianus"}, "[7]": {"test_system": "Daphnia magna", "details": "chronic/long-term; duration: 21 days; reproduction"}}, "note": "Values joined by “and” are separate entries in the source; they are usually repeats but may differ in a detail not shown here. Equal values may be shown once.", "data": [{"smiles": "Nc1cnn(-c2ccccc2)c(=O)c1Cl", "note": "[Chloridazon]", "values": [{"measurement": "LC50", "setting": "[1]", "value": "> 1000", "unit": "mg/kg"}, {"measurement": "LD50", "setting": "[2]; acute, oral, F, mortality", "value": "2140 mg/kg and 825 mg/kg"}, {"measurement": "NOAEL", "setting": "[2]; chronic, duration: 2 years, body weight", "value": 13, "unit": "mg/kg-day"}, {"measurement": "NOAEL", "setting": "[2]; reproduction developmental, body weight", "value": 37, "unit": "mg/kg-day"}, {"measurement": "NOAEL", "setting": "[2]; reproduction developmental, reproduction", "value": 37, "unit": "mg/kg-day"}, {"measurement": "NOAEL", "setting": "[2]; subchronic, duration: 90 days, oral, body weight", "value": 21, "unit": "mg/kg-day"}, {"measurement": "LC50", "setting": "[3]", "value": 1110, "unit": "mg/kg"}, {"measurement": "LD50", "setting": "[4]", "value": "> 200", "unit": "µg/piece"}, {"measurement": "LC50", "setting": "[5]; acute, duration: 96 hours, mortality", "value": 41.3, "unit": "µg/mL"}, {"measurement": "NOEC", "setting": "[5]; chronic/long-term, duration: 28 days, growth", "value": 3.16, "unit": "mg/L"}, {"measurement": "LD50", "setting": "[6]; acute, oral, mortality", "value": "≥ 2000", "unit": "mg/kg"}, {"measurement": "NOAEL", "setting": "[6]; reproduction developmental, F", "value": 21.8, "unit": "mg/kg-day"}, {"measurement": "NOEC", "setting": "[7]", "value": 10, "unit": "mg/L"}]}]}
